Measurements as given in patent US20250090699A1, “FAP TARGETING CYCLIC PEPTIDES AND CONJUGATES THEREOF” (Novartis AG, priority 2023, published 2025).
Structures can show the parent of a compound that is named as a salt. Starred links: 1 amine or outer side, 2 acyl side, 3 side chain; linkers in the order of their positions; H or OH if unused. Non-standard residues stand in square brackets, D forms with d. Residues, ends and D or L forms follow the SMILES beside them. Groups on a side chain read outwards from the residue. Primed or numbered codes have the meaning given here. *: point of attachment. F(4OEtNHDOTA-Ga) = gallium complex of (S)-2,2',2''-(10-(2-((2-(4-(2-amino-2-carboxyethyl)phenoxy)ethyl)amino)-2-oxoethyl)-1,4,7,10-tetraazacyclododecane-1,4,7-triyl)triacetic acid (Phe with 4-O-ethylamino-DOTA-Ga), O=C([O-])CN1CCN(CC(=O)[O-])CCN(CC(=O)NCCOc2ccc(C[C@H](N[*:1])C(=O)[*:2])cc2)CCN(CC(=O)[O-])CC1.[Ga+3]; K(COpipzaa) = N6-(4-(carboxymethyl)piperazine-1-carbonyl)-L-lysine, O=C(NCCCC[C@H](N[*:1])C(=O)[*:2])N1CCN(CC(=O)[*:3])CC1; COpipzaa = 4-(carboxymethyl)piperazine-1-carbonyl, O=C(O)CN1CCN(C(=O)*)CC1; F(4amPEG2NHDOTA-Ga)″ = Phe with 4-aminomethyl-PEG2-NH-DOTA, Ga complex; F(4OEtNHRDOTAGA-Ga) = Phe with 4-O-ethyl-NH-DOTAGA, Ga complex; DOTA = O=C(O)CN1CCN(CC(=O)O)CCN(CC(=O)*)CCN(CC(=O)O)CC1; Piperazinyl(4-CH2COOH) = O=C(O)CN1CCN(*)CC1; AEF = NCCOc1ccc(C[C@H](N)C(=O)O)cc1; NMeF = CN[C@@H](Cc1ccccc1)C(=O)O; Aoc(2) = CCCCCC[C@H](N)C(=O)O; Ahp(2) = CCCCC[C@H](N)C(=O)O; CO = O=C([*:1])[*:2]; Sar = CNCC(=O)O

Experiments:
[1] = target: T1, mouse FAP (Mus musculus, UniProt P97321); assay: Surface plasmon resonance (SPR) for peptide affinity, mouse FAP; format: binding
T1 construct: biotinylated His, Avi tag, mouse FAP (26-761, FAP-M82Q5); His; Avi tag (biotinylated); purchased AcroBiosystems FAP-M82Q5
T1 sequence (P97321 26-761): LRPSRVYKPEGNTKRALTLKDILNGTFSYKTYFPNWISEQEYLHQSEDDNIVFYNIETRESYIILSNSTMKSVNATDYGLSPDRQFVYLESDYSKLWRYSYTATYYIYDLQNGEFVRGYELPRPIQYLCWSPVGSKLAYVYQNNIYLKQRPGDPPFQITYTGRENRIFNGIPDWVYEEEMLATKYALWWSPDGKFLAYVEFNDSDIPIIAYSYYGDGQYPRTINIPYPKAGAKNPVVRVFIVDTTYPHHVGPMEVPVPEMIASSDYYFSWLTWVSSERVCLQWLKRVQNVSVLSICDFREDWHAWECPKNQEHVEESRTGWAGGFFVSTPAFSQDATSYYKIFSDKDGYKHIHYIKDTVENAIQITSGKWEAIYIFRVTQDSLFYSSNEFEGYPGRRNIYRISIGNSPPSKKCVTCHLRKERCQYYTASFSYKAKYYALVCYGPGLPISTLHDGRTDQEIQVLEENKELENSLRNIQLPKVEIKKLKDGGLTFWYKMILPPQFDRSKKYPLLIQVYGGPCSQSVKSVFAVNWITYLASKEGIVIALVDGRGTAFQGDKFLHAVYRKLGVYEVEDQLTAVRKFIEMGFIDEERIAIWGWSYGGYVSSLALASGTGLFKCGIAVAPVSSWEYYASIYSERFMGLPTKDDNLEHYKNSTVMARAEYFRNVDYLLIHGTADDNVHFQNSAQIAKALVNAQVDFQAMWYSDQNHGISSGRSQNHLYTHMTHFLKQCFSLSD
Summary of the method: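 KD values come from a 1:1 kinetic fit of single-cycle SPR data: 8 peptide concentrations, 25 °C, 30 μL/min, HEPES-buffered saline pH 7.6 with 2% DMSO. Targets were His/Avi-tagged human (26-760) or mouse (26-761) FAP, amine-coupled to CM5 or held on a CAPture chip.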

[2] = target: T2, human FAP (Homo sapiens, UniProt Q12884); assay: Enzymatic FAP competition assay (Z-Gly-Pro-AMC fluorescence), human FAP; format: biochemical; conditions: read-out: h. FAP, Enz., IC50
T2 construct: the biotinylated His, Avi tag, human FAP (26-760, FAP-H82Q6); His; Avi tag (biotinylated); purchased AcroBiosystems FAP-H82Q6
T2 sequence (Q12884 26-760): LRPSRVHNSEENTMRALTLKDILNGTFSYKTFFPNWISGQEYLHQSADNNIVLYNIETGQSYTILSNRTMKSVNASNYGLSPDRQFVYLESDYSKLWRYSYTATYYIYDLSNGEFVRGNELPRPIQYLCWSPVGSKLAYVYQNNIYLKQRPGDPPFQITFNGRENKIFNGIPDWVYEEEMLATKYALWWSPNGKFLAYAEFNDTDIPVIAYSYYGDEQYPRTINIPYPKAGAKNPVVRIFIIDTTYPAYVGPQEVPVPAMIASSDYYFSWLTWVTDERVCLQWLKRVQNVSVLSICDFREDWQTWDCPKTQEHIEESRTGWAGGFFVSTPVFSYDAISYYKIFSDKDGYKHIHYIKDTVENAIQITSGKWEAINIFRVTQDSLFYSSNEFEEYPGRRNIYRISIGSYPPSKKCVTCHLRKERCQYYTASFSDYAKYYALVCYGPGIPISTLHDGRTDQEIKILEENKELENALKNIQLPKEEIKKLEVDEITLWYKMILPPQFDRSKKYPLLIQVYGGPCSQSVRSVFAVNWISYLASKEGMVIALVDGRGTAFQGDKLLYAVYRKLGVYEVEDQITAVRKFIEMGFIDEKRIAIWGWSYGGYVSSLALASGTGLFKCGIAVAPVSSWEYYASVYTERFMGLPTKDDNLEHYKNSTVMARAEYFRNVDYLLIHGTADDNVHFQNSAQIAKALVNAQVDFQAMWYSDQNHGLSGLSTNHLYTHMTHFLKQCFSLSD
Summary of the method: (§1)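 IC50 values come from curve fitting of duplicate % inhibition data on AMC fluorescence (ex 380, em 460 nm) after 4 h at 22-24° C with 50 μM Z-Gly-Pro-AMC. Beforehand, peptides up to 1 μM (14 levels) sat 24 h with 0.01 nM human (26-760) or mouse (26-761) tagged FAP in phosphate buffer pH 7.5, NaCl, Tween20, 1% DMSO.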

[3] = target: T1, mouse FAP; assay: Enzymatic FAP competition assay (Z-Gly-Pro-AMC fluorescence), mouse FAP; format: biochemical; conditions: read-out: m. FAP, Enz., IC50
Summary of the method: as §1

Row | Compound | Kd [1] [nM] | IC50 [2] [nM] | IC50 [3] [nM]
1 | CCCCC[C@@H]1NC(=O)[C@H](Cc2ccc(O)cc2)NC(=O)[C@H](Cc2ccccc2)N(C)C(=O)CNC(=O)[C@H](CC(=O)O)NC(=O)[C@H]2CCCN2C(=O)[C@H](CC(=O)O)NC(=O)[C@H](Cc2ccc(O)cc2)NC(=O)CNC(=O)[C@H](Cc2c[nH]c3ccccc23)NC1=O [Example A18, Asp-Gly-NMePhe-Tyr-Ahp-Trp-Gly-Tyr-Asp-D-Pro] (cyclo([Ahp(2)]WGYD[dP]DG[NMeF]Y)) | 0.222 | 0.27 | 0.71
2 | CCCCC[C@@H]1NC(=O)[C@H](Cc2ccc(O)cc2)NC(=O)[C@H](Cc2ccccc2)N(C)C(=O)CNC(=O)[C@@H](CO)NC(=O)[C@H]2CCCN2C(=O)[C@H](CC(=O)O)NC(=O)[C@H](Cc2ccc(O)cc2)NC(=O)CNC(=O)[C@H](Cc2c[nH]c3ccccc23)NC1=O [Example A69, D-Ser-Gly-NMePhe-Tyr-Ahp-Trp-Gly-Tyr-Asp-D-Pro] (cyclo([Ahp(2)]WGYD[dP][dS]G[NMeF]Y)) | 0.222 | 0.121 | 0.47
3 | CCCCC[C@@H]1NC(=O)[C@H](Cc2ccc(O)cc2)NC(=O)[C@H](Cc2ccccc2)N(C)C(=O)CNC(=O)CNC(=O)CN(C)C(=O)[C@H](CC(=O)O)NC(=O)[C@H](Cc2ccc(O)cc2)NC(=O)CNC(=O)[C@H](Cc2c[nH]c3ccccc23)NC1=O [Example A68, Gly-Gly-NMePhe-Tyr-Ahp-Trp-Gly-Tyr-Asp-NMeGly] (cyclo([Ahp(2)]WGYD[Sar]GG[NMeF]Y)) | 35 | 12 | 80
4 | CCCCC[C@@H]1NC(=O)[C@H](Cc2ccc(OCCNC(=O)CN3CCN(CC(=O)O)CCN(CC(=O)O)CCN(CC(=O)O)CC3)cc2)NC(=O)[C@H](Cc2ccccc2)N(C)C(=O)CNC(=O)[C@H](CCCCNC(=O)N2CCN(CC(=O)O)CC2)NC(=O)[C@H]2CCCN2C(=O)[C@H](CC(=O)O)NC(=O)[C@H](Cc2ccc(O)cc2)NC(=O)CNC(=O)[C@H](Cc2c[nH]c3ccccc23)NC1=O [Example B25, K(COpipzaa)-Gly-NMePhe-F(4OEtNHDOTA)-Ahp-Trp-Gly-Tyr-Asp-D-Pro] (cyclo([AEF](DOTA)[Ahp(2)]WGYD[dP]K([CO-Piperazinyl(4-CH2COOH)])G[NMeF])) | 0.44 | 0.1 | 0.38
5 | CCCCC[C@@H]1NC(=O)[C@H](Cc2ccc(O)cc2)NC(=O)[C@H](Cc2ccccc2)N(C)C(=O)CNC(=O)CNC(=O)[C@H]2CCCN2C(=O)[C@H](CC(=O)O)NC(=O)[C@H](Cc2ccc(O)cc2)NC(=O)[C@@H](C)NC(=O)[C@H](Cc2c[nH]c3ccccc23)NC1=O [Example A64, Gly-Gly-NMePhe-Tyr-Ahp-Trp-D-Ala-Tyr-Asp-D-Pro] (cyclo([Ahp(2)]W[dA]YD[dP]GG[NMeF]Y)) | 3.6 | 2.4 | 4.1
6 | CCCCC[C@@H]1NC(=O)[C@H](Cc2ccc(OCCN)cc2)NC(=O)[C@H](Cc2ccccc2)N(C)C(=O)CNC(=O)[C@H](CCCCNC(=O)N2CCN(CC(=O)O)CC2)NC(=O)[C@H]2CCCN2C(=O)[C@H](CC(=O)O)NC(=O)[C@H](Cc2ccc(O)cc2)NC(=O)CNC(=O)[C@H](Cc2c[nH]c3ccccc23)NC1=O [Example A46, K(COpipzaa)-Gly-NMePhe-F(4OEtNH2)-Ahp-Trp-Gly-Tyr-Asp-D-Pro, TFA salt] (cyclo([AEF][Ahp(2)]WGYD[dP]K([CO-Piperazinyl(4-CH2COOH)])G[NMeF])) | 2.2 | 0.5 | 2.8
7 | hSer-Gly-NMe3PyA-F(4amPEG2NHDOTA-Lu)-hS(Pr)-W7N-Gly-K(COpipzaa)-Asp-D-Pro [Example C6] | < 0.035 | 0.024 | 0.049
8 | CCCCCC[C@@H]1NC(=O)[C@H](Cc2ccc(O)cc2)NC(=O)[C@H](Cc2ccccc2)N(C)C(=O)CNC(=O)[C@H](CCCCN)NC(=O)[C@H]2CCCN2C(=O)[C@H](CC(=O)O)NC(=O)[C@H](Cc2ccc(O)cc2)NC(=O)CNC(=O)[C@H](Cc2c[nH]c3ccccc23)NC1=O [Example A31, Lys-Gly-NMePhe-Tyr-Aoc-Trp-Gly-Tyr-Asp-D-Pro, TFA salt] (cyclo([Aoc(2)]WGYD[dP]KG[NMeF]Y)) | 0.106 | 0.04 | 0.158

Second part, the compound after the results:

Row | Kd [1] [nM] | IC50 [2] [nM] | IC50 [3] [nM] | Compound
9 | < 0.016 | 0.012 | 0.032 | Gly-Gly-NMePhe-F(4amPeG2NHDOTA-Ga)-Ahp-Trp-Gly-K(COpipzaa)-asp-D-Pro (cyclo(GG[NMeF][F(4amPEG2NHDOTA-Ga)″][Ahp(2)]WGK(COpipzaa)D[dP]); also: Ga in DOTA chelate) [Example C46]
10 | 0.037 | 0.012 | 0.048 | Gly-Gly-NMePhe-F(4OEtNHRDOTAGA-Ga)-Ahp-Trp-Gly-Tyr-Asp-D-Pro (cyclo(GG[NMeF][F(4OEtNHRDOTAGA-Ga)][Ahp(2)]WGYD[dP]); also: Ga complex of DOTAGA) [Example C38]
11 | < 0.039 | 0.011 | 0.032 | hSer-Gly-NMePhe-F(4amPEG2NHDOTA-Lu)-hS(Pr)-Trp-Gly-K(COpipzaa)-Asp-D-Pro [Example C4]
12 | 15 | 5.7 | 14 | CCCCC[C@@H]1NC(=O)[C@H](Cc2ccc(O)cc2)NC(=O)[C@H](Cc2ccccc2)N(C)C(=O)[C@H](CCC(=O)O)NC(=O)[C@H](CCCCN)NC(=O)[C@H]2CCCN2C(=O)[C@H](CC(=O)O)NC(=O)[C@H](Cc2ccc(O)cc2)NC(=O)CNC(=O)[C@H](Cc2c[nH]c3ccccc23)NC1=O [Example A21, Lys-Glu-NMePhe-Tyr-Ahp-Trp-Gly-Tyr-Asp-D-Pro, TFA salt] (cyclo([Ahp(2)]WGYD[dP]KE[NMeF]Y))
13 | < 0.02 | 0.046 | 0.052 | Gly-Gly-NMePhe-F(4OEtNHDOTA-Ga)-Ahp-Trp-Gly-K(COpipzaa)-Asp-D-Pro (cyclo(GG[NMeF][F(4OEtNHDOTA-Ga)][Ahp(2)]WG[K(COpipzaa)]D[dP]); also: Ga complex of DOTA) [Example C50]
14 | 0.081 | 0.028 | 0.101 | CCCCC[C@@H]1NC(=O)[C@H](Cc2ccc(O)cc2)NC(=O)[C@H](Cc2ccccc2)N(C)C(=O)CNC(=O)CN(C)C(=O)[C@H]2CCCN2C(=O)[C@H](CC(=O)O)NC(=O)[C@H](Cc2ccc(O)cc2)NC(=O)CNC(=O)[C@H](Cc2c[nH]c3ccccc23)NC1=O [Example A73, 2-((9S,12S,15S,18S,24S,27S,32aR)-18-((1H-indol-3-yl)methyl)-9-benzyl-12,24-bis(4-hydroxybenzyl)-2,8-dimethyl-1,4,7,10,13,16,19,22,25,28-decaoxo-15-pentyldotriacontahydropyrrolo[1,2-a][1,4,7,10,13,16,19,22,25,28]decaazacyclotriacontin-27-yl)acetic acid] (cyclo([Ahp(2)]WGYD[dP][Sar]G[NMeF]Y))
